Results reported in patent US11058111B2, “Use of multiple charged cationic compounds derived from primary amines or polyamines for microbial fouling control in a water system” (ECOLAB USA INC., priority 2018, dated 2021).

Key:
[1] = system: mixture of aerobic populations from more than 30 cooling systems in North America; assay: Bacterial growth inhibition test, similar to the MBEC assay; growth recorded visually or by turbidity at 650 nm; type: cell-based; design: key: “−” indicates no detectable growth at the end of test; “+” indicates detectable growth; “+/−” partial growth; “++” more growth; conditions: 40-48 hours incubation at 32-35° C.
Text: The microbial and biofilm inhibition test protocols used in this example is similar to the MBEC (Minimum Biofilm Eradication Concentration) assay and American Society for Testing and Materials (ASTM) MBEC-[…]-12 (2011) assay, both of which are commonly used. This test protocol can be used laboratory and field applications. The test protocol can be conducted in a 12-well or 96-well tissue culture plate format. The 12-well plate format is mainly for lab based and detailed screening/studies. The 96-well format is developed mainly for field applications. The test protocol starts with the preparation of the water sample to be tested by mixing the water from different water systems or artificial water with known bacterial populations with limited nutrient (16% of medium, 2% (w/w) casitone, 0.8% (w/w) yeast extracts, 4% (v/v) glycerol, 4 ppm FeCl3) and the solution of the treatment chemical. This step usually generates a series of the treated water samples with different concentrations for the treatment chemical(s) (from about 0.8 ppm to 1,000 ppm). Next, 200 μL of each treated water samples were transferred to a 96 well plate or 12 well plate. Usually, six replicates would be tested for each concentration of the treatment chemical(s) and controls with no treatment chemical and no bacterial were also placed in the plate(s). After the treated samples were properly plated, the plate(s) are placed on a slow rotary shaker in a humidity-controlled environment on at 32-35° C. for 40-48 hours of incubation. After the incubation, the bacterial growth in each well of the plate was recorded either visually or by a microplate turbidity reader at 650 nm to determine the minimum bacterial growth inhibition concentration for a treatment chemical. The bacteria used in this example for microbial and/or biofilm growth inhibition test protocols comprised a mixture of aerobic populations from more than 30 cooling systems in North America. The specific species were not specifically identified. Those species were grown on […] agar.

[2] = system: biofilm of a mixture of aerobic populations from more than 30 cooling systems in North America; assay: Biofilm growth inhibition test, similar to the MBEC assay; INT or crystal violet stain of biofilm on well walls; type: cell-based; design: key: “−” indicates no detectable growth at the end of test; “+” indicates detectable growth; “+/−” partial growth; “++” more growth; conditions: 40-48 hours incubation at 32-35° C.
Text: The microbial and biofilm inhibition test protocols used in this example is similar to the MBEC (Minimum Biofilm Eradication Concentration) assay and American Society for Testing and Materials (ASTM) MBEC-[…]-12 (2011) assay, both of which are commonly used. This test protocol can be used laboratory and field applications. The test protocol can be conducted in a 12-well or 96-well tissue culture plate format. The 12-well plate format is mainly for lab based and detailed screening/studies. The 96-well format is developed mainly for field applications. The test protocol starts with the preparation of the water sample to be tested by mixing the water from different water systems or artificial water with known bacterial populations with limited nutrient (16% of medium, 2% (w/w) casitone, 0.8% (w/w) yeast extracts, 4% (v/v) glycerol, 4 ppm FeCl3) and the solution of the treatment chemical. This step usually generates a series of the treated water samples with different concentrations for the treatment chemical(s) (from about 0.8 ppm to 1,000 ppm). Next, 200 μL of each treated water samples were transferred to a 96 well plate or 12 well plate. Usually, six replicates would be tested for each concentration of the treatment chemical(s) and controls with no treatment chemical and no bacterial were also placed in the plate(s). After the treated samples were properly plated, the plate(s) are placed on a slow rotary shaker in a humidity-controlled environment on at 32-35° C. for 40-48 hours of incubation. After this step, the bacterial cultures in the plate(s) were carefully poured out and 250 ul of dyes (350 ppm 2-(4-Iodophenyl)-3-(4-nitrophenyl)-5-phenyltetrazolium chloride (INT) or 2,000 ppm crystal violent (CV) for biofilm matrix stain) was added to each well for activity stain in biofilms on well walls. After 10-15 minutes, pour out the dye and gently wash the wells with deionized water until no colored water is running of the plate(s). After drying the plate(s), each well was inspected visually for staining and results are recorded. Alternatively, use 300 uL ethanol to extract CV dyes and transfer 200 uL of ethanol to a new plate for microtiter plate recording at 590 nm. […] The bacteria used in this example for microbial and/or biofilm growth inhibition test protocols comprised a mixture of aerobic populations from more than 30 cooling systems in North America. The specific species were not specifically identified. Those species were grown on […] agar.

Molecule | Bacterial growth ([1]; test concentration 0.8 ppm) | Bacterial growth ([1]; test concentration 1.5 ppm) | Bacterial growth ([1]; test concentration 3 ppm) | Bacterial growth ([1]; test concentration 6 ppm) | Bacterial growth ([1]; test concentration 12 ppm) | Bacterial growth ([1]; test concentration 25 ppm) | Bacterial growth ([1]; test concentration 50 ppm) | Bacterial growth ([1]; test concentration 63 ppm) | Bacterial growth ([1]; test concentration 125 ppm) | Bacterial growth ([1]; test concentration 250 ppm) | Bacterial growth ([1]; test concentration 500 ppm) | Bacterial growth ([1]; test concentration 1000 ppm) | Biofilm growth ([2]; test concentration 0.8 ppm) | Biofilm growth ([2]; test concentration 1.5 ppm) | Biofilm growth ([2]; test concentration 3 ppm) | Biofilm growth ([2]; test concentration 6 ppm) | Biofilm growth ([2]; test concentration 12 ppm) | Biofilm growth ([2]; test concentration 25 ppm) | Biofilm growth ([2]; test concentration 50 ppm) | Biofilm growth ([2]; test concentration 63 ppm) | also measured
CCCCCCCCCCCCN(CCC(=O)NCCC[N+](C)(C)C)CCC(=O)NCCC[N+](C)(C)C.[Cl-].[Cl-] [Compound 1, 3,3′-((3,3′-(dodecylazanediyl)bis(propanoyl))bis(azanediyl))bis(N,N,N-trimethylpropan-1-aminium) chloride] | + | + | + | + | + | + | + | + | + | + | + | − | + | + | + | + | + | + | + | + | Biofilm growth ([2]; test concentration 125 ppm): +; Biofilm growth ([2]; test concentration 250 ppm): +/−; Biofilm growth ([2]; test concentration 500 ppm): −; Biofilm growth ([2]; test concentration 1000 ppm): −
CCCCCCCCCCCCCCCCN(CCC(=O)NCCC[N+](C)(C)C)CCC(=O)NCCC[N+](C)(C)C.[Cl-].[Cl-] [Compound 2, 3,3′-((3,3′-(hexadecylazanediyl)bis(propanoyl))bis(azanediyl))bis(N,N,N-trimethylpropan-1-aminium) chloride] | + | + | + | + | + | + | +/− | − | − | − | − | − | + | + | + | + | + | +/− | − | − | Biofilm growth ([2]; test concentration 125 ppm): −; Biofilm growth ([2]; test concentration 250 ppm): −; Biofilm growth ([2]; test concentration 500 ppm): −; Biofilm growth ([2]; test concentration 1000 ppm): −
CCCCCCCCC=CCCCCCCCCN(CCC(=O)NCCC[N+](C)(C)C)CCC(=O)NCCC[N+](C)(C)C.[Cl-].[Cl-] [Compound 3, 3,3′-((3,3′-(octadec-9-en-1-ylazanediyl)bis(propanoyl))bis(azanediyl)) bis(N,N,N-trimethylpropan-1-aminium) chloride] | + | + | + | + | + | + | +/− | +/− | − | − | − | − | + | + | + | + | +/− | +/− | +/− | − | Biofilm growth ([2]; test concentration 125 ppm): −; Biofilm growth ([2]; test concentration 250 ppm): −; Biofilm growth ([2]; test concentration 500 ppm): −; Biofilm growth ([2]; test concentration 1000 ppm): _
3,3′-((3,3′-(octylazanediyl)bis(propanoyl))bis(azanediyl))bis(N,N,N-trimethylpropan-1-aminium) chloride [Compound 4] | + | + | + | ++ | +/− | − | − | − | − | − | − | − | + | + | +/− | − | − | − | − | − | Biofilm growth ([2]; test concentration 125 ppm): −; Biofilm growth ([2]; test concentration 250 ppm): −; Biofilm growth ([2]; test concentration 500 ppm): −; Biofilm growth ([2]; test concentration 1000 ppm): −
